The conditions of series [1]: mice, 3 mg/kg PB dose; cited from earlier work.
The conditions of series [2]: rats, PB alone; cited from earlier work.
In the next series the test system is PA strain PA99. Kind of series: Mouse PA abscess model, treatment injected at the site of infection. In kind it is in vivo, Pseudomonas aeruginosa. As to conditions: mice, data not shown. The protocol: FIG. 17. AuNP-PB administration at time of infection with PA prevents abscess formation. Mice were injected subcutaneously (SC) with 2×10^6 CFU of PA strain PA99 in 25 ul of PBS, and were then immediately treated with 50 ul PBS (SC), AuNP-PB (SC, equivalent of 2 ug PB), AuNP (without PB, SC, equivalent amount), or free PB (1 ug IV). SC injections were at the site of the abscess. Abscess areas were measured at 17 hr post-infection. Each symbol represents a distinct mouse. (A) Injections 5 min post-infection; (B) Injections 2 hr post-infection.
Experiments conducted during development of embodiments herein employed a mouse PA abscess model in which the heterogenous AuNP-PB are injected directly into the site of infection. This assay has the advantage of determining whether AuNP-PB kill bacteria in vivo in the absence of PK concerns.

In a further series the test system is PA. The following applies: free PB for PA; cited from earlier work.
A short description of series [3]: Serum peak concentration of free PB in mice (literature, ref. 83, and scaling). In kind it is in vivo. As to conditions: 4 mg/kg, estimated by scaling from the 3 mg/kg dose. The protocol:
An appropriate starting dose of free PB in mice is estimated by parameter scaling (ref 57; incorporated by reference in its entirety) to attain Cmax exposures that approximate concentrations obtained in human serum. […] Studies are initiated with a PB dose of 4 mg/kg in mice given by tail vein injection every 12 hr. Mice are monitored for 7 days for signs of toxicity (altered respiratory rate, lack of grooming, decreased activity, weight loss). The dose is increased by 1 mg/kg increments until toxicity is observed. Doses that cause more than temporary symptoms are considered the minimal toxic dose, and the next lower dose will be designated the MTD. The MTD of […] is determined in the same manner, starting with the PB molar equivalent MTD of […].

This is an account of results in patent US10688195B2, “Polymyxin B-coated nanoparticles” (Northwestern University, priority 2016, dated 2020).

Turning to polymyxin B [PB], in series [1], the “Mean peaks (serum)” value is about 4 mg/L. Moreover, in series [2], the Mean half-life was 1.5 h. In addition, the Bacterial loads entry with PA strain PA99 was “below the limit of detection”. The MIC (as a rule, the lowest concentration that inhibits growth of the organism) in the series on PA is 0.5 to 1.0 µg/mL. Also, in series [3], the Cmax (commonly the peak of the concentration-time curve) is 5300 ng/mL.
